From ChEMBL document CHEMBL1165921, “New potent inhibitors of tyrosinase: novel clues to binding of 1,3,4-thiadiazole-2(3H)-thiones, 1,3,4-oxadiazole-2(3H)-thiones, 4-amino-1,2,4-triazole-5(4H)-thiones, and substituted hydrazides to the dicopper active site” (Bioorg Med Chem, 2010)

Biological target: T1, Tyrosinase (Agaricus bisporus, UniProt O42713)
T1 sequence (O42713 whole entry): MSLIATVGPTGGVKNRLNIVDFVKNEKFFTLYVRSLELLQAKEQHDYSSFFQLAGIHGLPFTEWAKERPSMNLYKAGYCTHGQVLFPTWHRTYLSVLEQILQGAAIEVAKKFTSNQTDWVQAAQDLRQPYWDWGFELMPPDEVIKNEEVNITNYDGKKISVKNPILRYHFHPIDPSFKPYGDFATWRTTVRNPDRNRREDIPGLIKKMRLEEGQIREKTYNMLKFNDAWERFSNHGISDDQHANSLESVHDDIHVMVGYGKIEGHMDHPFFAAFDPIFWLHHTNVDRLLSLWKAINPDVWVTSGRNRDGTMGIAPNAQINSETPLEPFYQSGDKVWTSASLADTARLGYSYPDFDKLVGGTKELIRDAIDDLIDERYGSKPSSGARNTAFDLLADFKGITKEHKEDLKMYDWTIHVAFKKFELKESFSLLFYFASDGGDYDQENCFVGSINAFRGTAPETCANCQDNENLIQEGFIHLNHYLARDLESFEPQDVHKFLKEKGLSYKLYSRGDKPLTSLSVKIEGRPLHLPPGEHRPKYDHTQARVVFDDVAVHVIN
Description: Inhibition of mashroom tyrosinase

Row | Ki [µM] | SMILES
1 | 2.4 | Nn1c(-c2ccc(O)cc2)n[nH]c1=S
2 | 6.47 | S=c1[nH]nc(-c2ccccc2)o1
3 | 49 | NNC(=O)c1ccc(OCc2ccccc2)cc1
4 | 69.4 | S=c1[nH]nc(-c2n[nH]c(=S)o2)o1
5 | 1.77 | Oc1ccc(-c2nnc(S)o2)cc1
6 | 5.2 | S=c1[nH]nc(C(c2ccccc2)c2ccccc2)s1
7 | 6.76 | Sc1nnc(C(c2ccccc2)c2ccccc2)o1
8 | 2.47 | S=c1[nH]nc(-c2ccncc2)s1
9 | 1.35 | S=c1[nH]nc(-c2ccc(OCc3ccccc3)cc2)o1
10 | 4.42 | Sc1nnc(Cc2nnc(S)o2)o1

The next lines start with the molecule.

Row | SMILES | Ki [µM]
11 | S=c1[nH]nc(-c2n[nH]c(=S)s2)s1 | 2.9
12 | Sc1nnc(Cc2ccccc2)o1 | 3.67
13 | S=c1[nH]nc(-c2cccc3ccccc23)o1 | 33.6
14 | NNC(=O)c1ccc(O)cc1 | 177
15 | NNC(=O)c1ccc2ccccc2c1 | 99.6
16 | S=c1[nH]nc(C2CCCCC2)o1 | 4.94
17 | Nn1c(-c2ccncc2)n[nH]c1=S | 1.01
18 | Sc1nnc(-c2ccncc2)o1 | 14.2
19 | Sc1nnc(CCCc2nnc(S)o2)o1 | 1.9
20 | Sc1nnc(-c2cccc(OCc3ccccc3)c2)o1 | 3.64
21 | Sc1nnc(Cc2nnc(S)s2)s1 | 0.49
22 | Oc1cccc(-c2nnc(S)o2)c1 | 18.5
23 | CC(C)(C)[Si](C)(C)Oc1ccc(-c2nnc(S)s2)cc1 | 0.53
24 | Oc1ccc(-c2nnc(S)s2)cc1 | 0.19
25 | Sc1nnc(-c2ccccc2)s1 | 1.31
